From ChEMBL document CHEMBL1123562, “N-substituted oxopyrimidines and nucleosides: structure-activity relationship for hypnotic activity as central nervous system depressant” (J Med Chem, 1987)
Where “and” joins values, the source holds several entries; their conditions need not be identical. Identical values can stand only once.

Columns and labels:
Mus musculus [1] = experiment: Hypnotic activity expressed as sleeping time was determined in ddN strain mice by the icv administration of 2.0 uMol/mouse of the compound; format: functional
Mus musculus [2] = experiment: Hypnotic activity expressed as sleeping time was determined in ddN strain mice by the iv administration of 0.5 umol/kg of the compound; None indicates that the mouse could not fall into sleep; format: functional, organism-based
Mus musculus [3] = experiment: Tested for PB (pentobarbital)-induced sleep effect expressed as percent control of sleeping time at a dosage (icv) of 2.0 uM concentration; format: functional
Mus musculus [4] = experiment: Hypnotic activity expressed as sleeping time was determined in ddN strain mice by the icv administration of 3.8 uMol/mouse of the compound; None indicates that the mouse could not fall into sleep; format: functional, organism-based
Mus musculus [5] = experiment: Hypnotic activity in ddN strain mice by the iv administration of 0.5 mmol/kg; No activity.; format: functional, organism-based
Mus musculus [6] = experiment: Tested for PB (pentobarbital)-induced sleep effect expressed as percent control of sleeping time at a dosage (icv) of 3.8 uM concentration; format: functional
[7] = Partition coefficient is determined for the compound from its equilibrium concentrations in organic phase to that in aqueous buffer of pH 7.4; format: ADME; conditions: octanol/water
Mus musculus [8] = experiment: Hypnotic activity expressed as sleeping time was determined in ddN strain mice by the iv administration of 0.1 mmol/kg of the compound; None indicates that the mouse could not fall into sleep; format: functional, organism-based
Mus musculus [9] = experiment: Hypnotic activity expressed as sleeping time was determined in ddN strain mice by the iv administration of 0.3 mmol/kg of the compound; format: functional
Mus musculus [10] = experiment: Hypnotic activity expressed as sleeping time was determined in ddN strain mice by the iv administration of 0.5 mmol/kg of the compound; format: functional
Mus musculus [11] = experiment: Hypnotic activity expressed as sleeping time was determined in ddN strain mice by the icv administration of 12.0 uMol/mouse of the compound; format: functional
Mus musculus [12] = experiment: Hypnotic activity expressed as sleeping time was determined in ddN strain mice by the icv administration of 2.0 uMol/mouse of the compound; None indicates that the mouse could not fall into sleep; format: functional, organism-based
Mus musculus [13] = experiment: Tested for PB (pentobarbital)-induced sleep effect expressed as percent control of sleeping time at a dosage (icv) of 2.4 uM concentration; format: functional
Mus musculus [14] = experiment: Tested for PB (pentobarbital)-induced sleep effect expressed as percent control of sleeping time at a dosage (icv) of 1.0 uM concentration; format: functional
Mus musculus [15] = experiment: Hypnotic activity expressed as ratio of number of animals slept and total number of animals tested was determined in ddN strain mice by the icv administration of 0.3 mmol/kg of the compound; 2/8; format: functional
Mus musculus [16] = experiment: Hypnotic activity expressed as ratio of number of animals slept and total number of animals tested was determined in ddN strain mice by the icv administration of 0.5 mmol/kg of the compound; 5/8; format: functional
Mus musculus [17] = experiment: Hypnotic activity expressed as sleeping time was determined in ddN strain mice by the icv administration of 3.0 uMol/mouse of the compound; format: functional
Mus musculus [18] = experiment: Hypnotic activity expressed as sleeping time was determined in ddN strain mice by the icv administration of 1.0 uMol/mouse of the compound; None indicates that the mouse could not fall into sleep; format: functional, organism-based
Mus musculus [19] = experiment: Hypnotic activity expressed as ratio of number of animals slept and total number of animals tested was determined in ddN strain mice by the icv administration of 0.1 mmol/kg of the compound; 0/8; format: functional
Mus musculus [20] = experiment: Hypnotic activity expressed as ratio of number of animals slept and total number of animals tested was determined in ddN strain mice by the icv administration of 0.3 mmol/kg of the compound; 6/6; format: functional
Mus musculus [21] = experiment: Hypnotic activity expressed as ratio of number of animals slept and total number of animals tested was determined in ddN strain mice by the icv administration of 0.5 mmol/kg of the compound; 4/4; format: functional
Mus musculus [22] = experiment: Hypnotic activity expressed as sleeping time was determined in ddN strain mice by the icv administration of 1.0 uMol/mouse of the compound; format: functional
Mus musculus [23] = experiment: Hypnotic activity expressed as ratio of number of animals slept and total number of animals tested was determined in ddN strain mice by the icv administration of 0.1 mmol/kg of the compound; 8/8; format: functional
Mus musculus [24] = experiment: Hypnotic activity expressed as sleeping time was determined in ddN strain mice by the iv administration of 0.3 mmol/kg of the compound; None indicates that the mouse could not fall into sleep; format: functional, organism-based
Mus musculus [25] = experiment: Hypnotic activity expressed as ratio of number of animals slept and total number of animals tested was determined in ddN strain mice by the icv administration of 0.1 mmol/mouse of the compound; 0/8; format: functional
Mus musculus [26] = experiment: Hypnotic activity expressed as ratio of number of animals slept and total number of animals tested was determined in ddN strain mice by the icv administration of 0.3 mmol/mouse of the compound; 7/8; format: functional
Mus musculus [27] = experiment: Hypnotic activity expressed as ratio of number of animals slept and total number of animals tested was determined in ddN strain mice by the icv administration of 0.3 mmol/mouse of the compound; 8/8; format: functional
Mus musculus [28] = experiment: Hypnotic activity expressed as sleeping time was determined in ddN strain mice by the icv administration of 3.8 uMol/mouse of the compound; format: functional
Mus musculus [29] = experiment: Hypnotic activity expressed as sleeping time was determined in ddN strain mice by the icv administration of 0.1 mmol/mouse of the compound; None indicates that the mouse could not fall into sleep; format: functional, organism-based

Structure (SMILES): Cc1ccc(Cn2c(=O)ccn(C3O[C@H](CO)[C@@H](O)[C@H]3O)c2=O)cc1 (stereo partly drawn)
- Sleeping time (Mus musculus [1]): 36 min
- Sleeping time (Mus musculus [2]): None
- Sleeping time (% of control) (Mus musculus [3]): 308%

Structure (SMILES): Cn1c(=O)ccn(C2O[C@H](CO)[C@@H](O)[C@H]2O)c1=O (stereo partly drawn)
- Sleeping time (Mus musculus [4]): None
- Sleeping time (Mus musculus [5]): None
- Control (Mus musculus [6]): 117%

Structure (SMILES): CCn1c(=O)ccn(C2O[C@H](CO)[C@@H](O)[C@H]2O)c1=O (stereo partly drawn)
- Sleeping time (Mus musculus [4]): None
- Sleeping time (Mus musculus [5]): None
- Control (Mus musculus [6]): 124%

Structure (SMILES): O=c1c(F)cn(C2CCCO2)c(=O)n1Cc1ccccc1 (stereo not drawn)
- Partition coefficient [7]: 23.94
- Sleeping time (Mus musculus [8]): None
- Sleeping time (Mus musculus [9]): 2 min
- Sleeping time (Mus musculus [1]): 3 min
- Sleeping time (Mus musculus [10]): 7 min
- Sleeping time (% of control) (Mus musculus [3]): 262%

Structure (SMILES): CC(=O)OC[C@H]1O[C@@H](n2ccc(=O)n(Cc3ccccc3)c2=O)[C@H](OC(C)=O)[C@@H]1OC(C)=O
- Partition coefficient [7]: 32.73
- Sleeping time (Mus musculus [8]): None
- Sleeping time (Mus musculus [9]): 1 min
- Sleeping time (Mus musculus [1]): 4 min
- Sleeping time (Mus musculus [10]): 5 min
- Sleeping time (% of control) (Mus musculus [3]): 186%

Structure (SMILES): O=c1ccn(Cc2ccccc2)c(=O)n1Cc1ccccc1
- Sleeping time (Mus musculus [11]): 15 min
- Sleeping time (Mus musculus [12]): None
- Sleeping time (Mus musculus [10]): 17 min
- Control (Mus musculus [6]): 112%

Structure (SMILES): O=c1ccn([C@@H]2O[C@H](CO)[C@@H](O)[C@H]2O)c(=O)[nH]1 [URIDINE]
- Sleeping time (Mus musculus [4]): None
- Sleeping time (Mus musculus [5]): None
- Control (Mus musculus [13]): 135%
- Control (Mus musculus [6]): 138%
- Control (Mus musculus [14]): 93%

Structure (SMILES): Cc1cccc(Cn2c(=O)ccn(C3O[C@H](CO)[C@@H](O)[C@H]3O)c2=O)c1 (stereo partly drawn)
- Sleeping time (Mus musculus [1]): 56 min
- Sleeping time (Mus musculus [5]): None
- Sleeping time (% of control) (Mus musculus [3]): 326%

Structure (SMILES): CC(=O)OC[C@H]1O[C@@H](n2ccc(=O)[nH]c2=O)[C@H](OC(C)=O)[C@@H]1OC(C)=O [URIDINE TRIACETATE]
- Sleeping time (Mus musculus [1]): 8 min
- Sleeping time (Mus musculus [5]): None
- Sleeping time (% of control) (Mus musculus [3]): 178%

Structure (SMILES): O=c1ccn(C2O[C@H](CO)[C@@H](O)[C@H]2O)c(=O)n1Cc1ccc(Cl)cc1 (stereo partly drawn)
- Sleeping time (Mus musculus [1]): 20 min
- Sleeping time (Mus musculus [5]): None
- Control (Mus musculus [6]): 203%

Structure (SMILES): C=CCn1c(=O)ccn(C2O[C@H](CO)[C@@H](O)[C@H]2O)c1=O (stereo partly drawn)
- Sleeping time (Mus musculus [4]): None
- Sleeping time (Mus musculus [5]): None
- Control (Mus musculus [6]): 173%

Structure (SMILES): CC(C)=CCn1c(=O)ccn(C2O[C@H](CO)[C@@H](O)[C@H]2O)c1=O (stereo partly drawn)
- Sleeping time (Mus musculus [4]): None
- Sleeping time (Mus musculus [5]): None
- Control (Mus musculus [6]): 228%

Structure (SMILES): O=c1ccn(Cc2ccccc2)c(=O)[nH]1
- Sleeping time (Mus musculus [12]): None
- Sleeping time (Mus musculus [5]): None
- Sleeping time (% of control) (Mus musculus [3]): 86%

Structure (SMILES): CC(c1ccccc1)n1c(=O)ccn(C2O[C@H](CO)[C@@H](O)[C@H]2O)c1=O (stereo partly drawn)
- Activity (Mus musculus [15]): 2
- Activity (Mus musculus [16]): 5
- Sleeping time (Mus musculus [17]): 27 min
- Sleeping time (Mus musculus [18]): None
- Sleeping time (Mus musculus [1]): 7 min
- Sleeping time (Mus musculus [5]): None
- Activity (Mus musculus [19]): 0
- Sleeping time (% of control) (Mus musculus [3]): 231%
- Control (Mus musculus [6]): 303%

Structure (SMILES): COC[C@H]1O[C@@H](n2ccc(=O)n(Cc3ccccc3)c2=O)[C@H](OC)[C@@H]1OC
- Partition coefficient [7]: 64.45
- Sleeping time (Mus musculus [8]): None
- Sleeping time (Mus musculus [9]): 6 min
- Sleeping time (Mus musculus [1]): 6 min
- Sleeping time (Mus musculus [10]): 29 min
- Sleeping time (% of control) (Mus musculus [3]): 200%

Structure (SMILES): Cc1ccccc1Cn1c(=O)ccn(C2O[C@H](CO)[C@@H](O)[C@H]2O)c1=O (stereo partly drawn)
- Activity (Mus musculus [20]): 6
- Activity (Mus musculus [21]): 4
- Sleeping time (Mus musculus [17]): 129 min
- Sleeping time (Mus musculus [22]): 45 min
- Sleeping time (Mus musculus [1]): 72 min and 70 min
- Sleeping time (Mus musculus [5]): None
- Activity (Mus musculus [23]): 8
- Sleeping time (% of control) (Mus musculus [3]): 344%

Structure (SMILES): CCCn1c(=O)ccn(C2O[C@H](CO)[C@@H](O)[C@H]2O)c1=O (stereo partly drawn)
- Sleeping time (Mus musculus [4]): None
- Sleeping time (Mus musculus [5]): None
- Control (Mus musculus [6]): 134%

Structure (SMILES): COC[C@H]1O[C@@H](n2ccc(=O)[nH]c2=O)[C@H](OC)[C@@H]1OC
- Partition coefficient [7]: 2.16
- Sleeping time (Mus musculus [8]): None
- Sleeping time (Mus musculus [24]): None
- Sleeping time (Mus musculus [12]): None
- Sleeping time (Mus musculus [5]): None
- Control (Mus musculus [3]): 144%

Structure (SMILES): O=c1ccn(C2O[C@H](CO)[C@@H](O)[C@H]2O)c(=O)n1Cc1ccccc1 (stereo partly drawn)
- Partition coefficient [7]: 2.16
- Activity (Mus musculus [25]): 0
- Activity (Mus musculus [26]): 7
- Activity (Mus musculus [27]): 8
- Sleeping time (Mus musculus [17]): 106 min
- Sleeping time (Mus musculus [28]): 153 min
- Sleeping time (Mus musculus [8]): None
- Sleeping time (Mus musculus [24]): None
- Sleeping time (Mus musculus [1]): 36 min and 28 min
- Sleeping time (Mus musculus [5]): None
- Sleeping time (% of control) (Mus musculus [3]): 292%
- Control (Mus musculus [6]): 404%
- Control (Mus musculus [14]): 154%
- Sleeping time (Mus musculus [29]): None

Structure (SMILES): O=c1[nH]c(=O)n(C2CCCO2)cc1F (stereo not drawn) [TEGAFUR]
- Partition coefficient [7]: 0.35
- Sleeping time (Mus musculus [8]): None
- Sleeping time (Mus musculus [24]): None
- Sleeping time (Mus musculus [12]): None
- Sleeping time (Mus musculus [5]): None
- Sleeping time (% of control) (Mus musculus [3]): 139%

Structure (SMILES): O=c1cc[nH]c(=O)[nH]1 [URACIL]
- Sleeping time (Mus musculus [12]): None
- Sleeping time (Mus musculus [5]): None
- Control (Mus musculus [14]): 99%
